Source: patent US12421207B2 (CMG Pharmaceutical Co., Ltd., priority 2022, dated 2025)
Where two headings read alike, the source gives them in different places.

Columns and labels:
HCC827/GR cells = test: Cell viability assay (CellTiter-Glo 2.0), gefitinib-resistant HCC827/GR cells; assay type: cell-based, human; settings: Homo sapiens, read-out: Relative cell viability, IC50 HCC827GR
Text: (§1) To explore c-MET and AXL mechanisms of EGFR TKI resistance, resistant cells of the EGFR TKI hypersensitive EGFR exon 19 mutant NSCLC cell line, HCC827 and PC9 were generated by exposing these cells to increasing concentrations of EGFR TKI for over 3 months.
The human cell line HCC827 was purchased from the American Type Culture Collection (Manassas, VA), and the PC9 cell line was obtained from RIKEN Cell Bank (Ibaraki, Japan). […] Gefitinib-resistant cells were referred to as HCC827/GR. […] Osimertinib-resistant cells were referred to as HCC827/OR.
(§2) Cell viability assays were carried out by plating 1,000 cells per well of HCC827 or PC9 resistant cells, respectively, into white transparent-bottom 384-well plates. The cells were treated with each TKI across a 10-dose range from 1 nM to 10,000 nM. After 72 h of drug treatment, cell viability was measured using the CellTiter-Glo 2.0 assay (Promega, Madison, WI).
as §2

PC9/ER cells = test: Cell viability assay (CellTiter-Glo 2.0), erlotinib-resistant PC9/ER cells; assay type: cell-based; settings: Homo sapiens, PC-9/ER; Table 2; 72 h drug treatment, EGFR TKI resistant cells, combination with EGFR TKI; read-out: Relative cell viability; IC50 PC9ER
Text: as §1
(§3) Gefitinib-resistant cells were referred to as HCC827/GR. […] Osimertinib-resistant cells were referred to as HCC827/OR.

HCC827/ER cells = test: Cell viability assay (CellTiter-Glo 2.0), erlotinib-resistant HCC827/ER cells; assay type: cell-based, human; settings: Homo sapiens, HCC827ER, Table 2, 72 h drug treatment, EGFR TKI resistant cells, combination with EGFR TKI, read-out: Relative cell viability
Text: as §1, §3

HCC827/OR cells = test: Cell viability assay (CellTiter-Glo 2.0), osimertinib-resistant HCC827/OR cells; assay type: cell-based, human; settings: Homo sapiens, HCC827; Table 2; 72 h drug treatment, EGFR TKI resistant cells, combination with EGFR TKI; read-out: Relative cell viability; IC50 HCC827OR
Text: as §1, §3

[1] = HCC827, Table 2, 72 h drug treatment, EGFR TKI resistant cells, combination with EGFR TKI

SMILES | IC50 (HCC827/GR cells; [1]) | IC50 (PC9/ER cells) | IC50 (HCC827/ER cells) | IC50 (HCC827/OR cells) | IC50 (HCC827/GR cells; HCC827, 72 h)
CC(C)n1cc(C(=O)Nc2ccc(Oc3ccnc(N)c3C#CC(=O)N3CCNCC3)c(F)c2)c(=O)n(-c2ccc(F)cc2)c1=O [Example 1, N-(4-(2-amino-3-(3-oxo-3-(piperazin-1-yl)prop-1-ynyl)pyridin-4-yloxy)-3-fluorophenyl)-3-(4-fluorophenyl)-1-isopropyl-2,4-dioxo-1,2,3,4-tetrahydropyrimidine-5-carboxamide] | < 0.01 µM | < 0.01 µM | < 0.01 µM | < 0.01 µM | 
COCCN1CCN(C(=O)C#Cc2c(Oc3ccc(NC(=O)c4cn(C(C)C)c(=O)n(-c5ccc(F)cc5)c4=O)cc3F)ccnc2N)CC1 [Example 2, N-(4-(2-amino-3-(3-(4-(2-methoxyethyl)piperazin-1-yl)-3-oxoprop-1-ynyl)pyridin-4-yloxy)-3-fluorophenyl)-3-(4-fluorophenyl)-1-isopropyl-2,4-dioxo-1,2,3,4-teterahydropyrimidine-5-carboxamide] | < 0.01 µM | < 0.01 µM | < 0.01 µM | < 0.01 µM | 
CC(C)n1cc(C(=O)Nc2ccc(Oc3ccnc(N)c3/C=C/C(=O)N3CCNCC3)c(F)c2)c(=O)n(-c2ccc(F)cc2)c1=O [Example 3, (E)-N-(4-(2-amino-3-(3-oxo-3-(piperazin-1-yl)prop-1-enyl)pyridin-4-yloxy)-3-fluorophenyl)-3-(4-fluorophenyl)-1-isopropyl-2,4-dioxo-1,2,3,4-tetrahydropyrimidine-5-carboxamide] | < 0.1 µM | < 1 µM | < 0.1 µM | < 0.1 µM | 
COCCN1CCN(C(=O)/C=C/c2c(Oc3ccc(NC(=O)c4cn(C(C)C)c(=O)n(-c5ccc(F)cc5)c4=O)cc3F)ccnc2N)CC1 [Example 4, (E)-N-(4-(2-amino-3-(3-(4-(2-methoxyethyl)piperazin-1-yl)-3-oxoprop-1-enyl)pyridin-4-yloxy)-3-fluorophenyl)-3-(4-fluorophenyl)-1-isopropyl-2,4-dioxo-1,2,3,4-tetrahydropyrimidine-5-carboxamide] | < 0.01 µM | < 1 µM | < 0.01 µM | < 0.01 µM | 
CC(C)n1cc(C(=O)Nc2ccc(Oc3ccnc(N)c3C#N)c(F)c2)c(=O)n(-c2ccc(F)cc2)c1=O [Example 5, N-(4-(2-amino-3-cyanopyridin-4-yloxy)-3-fluorophenyl)-3-(4-fluorophenyl)-1-isopropyl-2,4-dioxo-1,2,3,4-tetrahydropyrimidine-5-carboxamide] | < 0.1 µM | < 1 µM | < 0.01 µM | < 0.1 µM | 
CC(C)n1cc(C(=O)Nc2ccc(Oc3ccnc(N)c3Cl)c(F)c2)c(=O)n(-c2ccc(F)cc2)c1=O [Example 6, N-(4-(2-amino-3-chloropyridin-4-yloxy)-3-fluorophenyl)-3-(4-fluorophenyl)-1-isopropyl-2,4-dioxo-1,2,3,4-tetrahydropyrimidine-5-carboxamide] |  |  |  |  | < 0.1 µM
CC(C)n1cc(C(=O)Nc2ccc(Oc3ccnc(N)c3-c3cnn(C)c3)c(F)c2)c(=O)n(-c2ccc(F)cc2)c1=O [Example 7, N-(4-(2-amino-3-(1-methyl-1H-pyrazol-4-yl)pyridin-4-yloxy)-3-fluoropehynl)-1-isopropyl-2,4-dioxo-1,2,3,4-tetrahydropyrimidine-5-carboxamide] | < 0.01 µM | < 1 µM | < 0.01 µM | < 0.01 µM | 
CC(C)n1cc(C(=O)Nc2ccc(Oc3ccnc(N)c3C#Cc3ccccn3)c(F)c2)c(=O)n(-c2ccc(F)cc2)c1=O [Example 9, N-(4-(2-amino-3-(pyridin-2-ylethnyl)pyridin-4-yloxy)-3-fluorophenyl)-3-(4-fluorophenyl)-1-isopropyl-2,4-dioxo-1,2,3,4-tetrahydropyrimidine-5-carboxamide] | < 0.1 µM | > 10 µM | < 0.1 µM | < 0.1 µM | 
CC(C)n1cc(C(=O)Nc2ccc(Oc3ccnc(N)c3-c3ccc(Oc4ccccc4)cc3)c(F)c2)c(=O)n(-c2ccc(F)cc2)c1=O [Example 10] | < 1 µM | < 0.1 µM | < 1 µM | < 1 µM | 
